In patent US20220153704A1 (priority 2019, published 2022):

Experiment: DVS characterization of hygroscopicity and stability under different humidity
Format: physicochemical
Conditions: 25° C.
Method: The dynamic vapor sorption (DVS) graph was collected on DVS Intrinsic of SMS (Surface Measurement Systems). The relative humidity at 25° C. was corrected by the deliquescent point of LiCl, Mg(NO3)2 and KCl.
In order to evaluate the hygroscopicity and stability of anhydrous crystalline form E under different humidity conditions, DVS and XRPD tests were performed on crystalline form E samples at a constant temperature of 25° C.

SMILES: CCN1C[C@]2(COC)CC[C@H](OC)[C@]34C5C[C@]6(O)[C@@H](OC)C[C@@](OC(C)=O)(C5[C@H]6OC(=O)c5ccc(OC)cc5)[C@H](C13)[C@H](OC)[C@H]24 (stereo partly drawn) [crystalline form E, (1α,6α,14α,16β)tetrahydro-8,13,14-triol-20-ethyl-1,6,16-trimethoxy-4-methoxymethyl-8-acetoxy-14-(4′-p-methoxybenzyl)-aconitane]
- crystalline form before and after the DVS test (XRPD): did not change
- water adsorbed (DVS) (humidity 80% RH): 0.12%
- hygroscopicity (DVS, up to 80% RH): no hygroscopicity
